The values below come from patent US20090048269A1 (AstraZeneca AB, priority 2007, published 2009).

For the assay, the target named is T1, human ALK5 (Homo sapiens, UniProt P36897).
T1 sequence (P36897 162-503): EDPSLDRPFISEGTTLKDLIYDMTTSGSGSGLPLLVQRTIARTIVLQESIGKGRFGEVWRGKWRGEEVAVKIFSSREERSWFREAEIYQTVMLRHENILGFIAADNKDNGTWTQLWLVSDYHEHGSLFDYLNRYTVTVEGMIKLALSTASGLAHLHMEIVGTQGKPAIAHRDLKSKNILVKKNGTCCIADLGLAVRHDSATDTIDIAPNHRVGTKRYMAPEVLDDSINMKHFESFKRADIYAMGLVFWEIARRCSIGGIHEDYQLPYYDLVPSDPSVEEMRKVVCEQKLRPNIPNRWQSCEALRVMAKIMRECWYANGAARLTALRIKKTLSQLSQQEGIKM
Kind of assay: ALK5 Enzyme Assay 2 (fluorescence polarisation probe displacement). The conditions noted are these: read-out: EAA2: activity (μM) using Enzyme Assay 2. Format: binding. Details: 6His tagged human ALK5 (residues162-503) was grown and purified from insect cells; 6His; made in house; host or cells: insect cells. Here is the method: The ability of a compound to bind and inhibit ALK5 can be measured by its capacity to displace a probe molecule from recombinant ALK5 in an in vitro assay. Provided the probe molecule is derivatised with a fluorescent probe or is fluorescent itself, the binding affinity can be measured using Fluorescence Polarisation (FP). […] Assay measurements were performed in 50 mM HEPES pH7.4, 10 mM MgCl2, 1 mM DTT, 0.01% CHAPS in a final assay volume of 12 μl. Briefly 6 μl of ALK5 protein, final concentration of 3 μg/mL, was added to each well of a 384 well assay plate containing 12 nL of each concentration of test compound dissolved in DMSO. 6 μL of a solution containing an ALK5 FP probe ((2Z)-3-(6-{4-[2-({4-[(6-chloro[1,3]dioxolo[4,5-b]pyridin-7-yl)amino]-5-(1-methylethoxy)quinazolin-7-yl}oxy)ethyl]piperazin-1-yl}-6-oxohexyl)-2-[(2E,4E)-5-(3-ethyl-1,1-dimethyl-6,8-disulfo-1H-benzo[e]indolium-2-yl)penta-2,4-dien-1-ylidene]-1,1-dimethyl-6-sulfo-2,3-dihydro-1H-benzo[e]indole-8-sulfonate), final concentration 50 nM, and ATP, final concentration 1 μM.
Background: Polarisation of emitted light reports the rotation of a fluorescent probe.

On to `CC(=O)NS(=O)(=O)c1ccc(Nc2cc(Oc3ccc(C)nc3C)ccn2)cc1` [Example 107, N-{4-[4-(2,6-Dimethylpyridin-3-yloxy)pyridin-2-ylamino]phenyl-sulfonyl}acetamide], for which the IC50 turned out to be 0.592 µM.
Next, `Cc1ccc(Oc2ccnc(Nc3ccc(C#N)cc3)c2)c(C)n1` [Example 89, 4-{[4-(2,6-Dimethylpyridin-3-yl)oxypyridin-2-yl]amino}-benzonitrile]: 0.346 µM.
As to `Cc1cc(Oc2ccnc(Nc3cccc(-c4cnco4)c3)c2)c(-c2ccccn2)nc1C` [Example 77, 4-(5,6-Dimethyl-2-pyridin-2-ylpyridin-3-yl)oxy-N-[3-(1.3-oxazol-5-yl)phenyl]pyridin-2-amine], the IC50 was determined as 0.00862 µM.
The result for `CC(=O)N(C)c1ccc(Nc2cc(Oc3cc(C)c(C)nc3-c3ccccn3)ccn2)cc1` [Example 83, N-(4-{[4-(5,6-Dimethyl-2-pyridin-2-ylpyridin-3-yl)oxypyridin-2-yl]-amino}phenyl)-N-methylacetamide] reads 0.0259 µM; that for `Cc1ccc(Oc2ccnc(Nc3ccc(C(=O)NCCN4CCC(F)(F)CC4)cc3)c2)c(C)n1` [Example 219, N-[2-(4,4-Difluoropiperidin-1-yl)ethyl]-4-{[4-(2,6-dimethyl-pyridin-3-yl)oxypyridin-2-yl]amino}benzamide], 0.108 µM; that for `Cc1cc(Oc2ccnc(Nc3cccc(C(=O)NCc4ccncc4)c3)c2)c(-c2ccccn2)nc1C` [Example 100, 3-{[4-(5,6-Dimethyl-2-pyridin-2-ylpyridin-3-yl)oxypyridin-2-yl]-amino}-N-(pyridin-4-ylmethyl)benzamide], 0.00576 µM.
For `Cc1ccc(Oc2ccnc(Nc3ccc(C(N)=O)cc3)c2)c(C)n1` [Example 92, 4-{[4-(2,6-Dimethylpyridin-3-yl)oxypyridin-2-yl]amino}benzamide], the IC50 was found to be 0.0694 µM.
The result for `COc1cc(Nc2cc(Oc3ccc(C)nc3-c3ccc(F)cc3)ccn2)cc(OC)c1OC` [Example 171, 4-[2-(4-Fluorophenyl)-6-methylpyridin-3-yloxy]-N-(3,4,5-trimethoxyphenyl)pyridin-2-amine] reads 0.0239 µM.
With `COc1ccc(NC(=O)N2CCN(Cc3cccc(Nc4cc(Oc5ccc(C)nc5C)ccn4)c3)CC2)cc1` [Example 179, 4-[(3-{[4-(2,6-Dimethylpyridin-3-yl)oxypyridin-2-yl]-amino}phenyl)methyl]-N-(4-methoxyphenyl)piperazine-1-carboxamide], the IC50 amounted to 0.0233 µM.
For the compound `Cc1ccc(Oc2ccnc(Nc3ccc(CO)cc3)c2)c(-c2ccccc2)n1` [Example 152, (4-{[4-(6-Methyl-2-phenylpyridin-3-yl)oxypyridin-2-yl]amino}-phenyl)methanol], the IC50 worked out at 0.00705 µM.
The result for `Cc1cc(Oc2ccnc(Nc3cccc(C(=O)NC4CC4)c3)c2)c(-c2ccccn2)nc1C` [Example 72, N-Cyclopropyl-3-{[4-(5,6-dimethyl-2-pyridin-2-ylpyridin-3-yl)-oxypyridin-2-yl]amino}benzamide] reads 0.0108 µM.
Next, `Cc1ccc(Oc2ccnc(Nc3ccc(C(N)=O)cc3)c2)c(-c2ccco2)n1` [Example 162, 4-({4-[2-(Furan-2-yl)-6-methylpyridin-3-yl]oxypyridin-2-yl}-amino)benzamide]: 0.0204 µM; `Cc1ccc(Oc2ccnc(Nc3ccccn3)c2)c(-c2ccccc2)n1` [Example 150, 4-(6-Methyl-2-phenylpyridin-3-yl)oxy-N-pyridin-2-ylpyridin-2-amine]: 0.0047 µM.
The result for `Cc1ccc(Oc2ccnc(Nc3cccc(CN4CCN(S(=O)(=O)c5cccnc5-n5cncn5)CC4)c3)c2)c(C)n1` [Example 182, 4-(2,6-Dimethylpyridin-3-yl)oxy-N-[3-({4-[2-(1,2,4-triazol-1-yl)-pyridin-3-yl]sulfonylpiperazin-1-yl}methyl)phenyl]pyridin-2-amine] reads 0.0183 µM; that for `Cc1cc(Oc2ccnc(Nc3cc(NS(C)(=O)=O)cc(C(N)=O)c3)c2)c(-c2ccccn2)nc1C` [Example 84, 3-{[4-(5,6-Dimethyl-2-pyridin-2-ylpyridin-3-yl)oxypyridin-2-yl]-amino}-5-methanesulfonamidobenzamide], 0.016 µM.
For `Cc1cc(Oc2ccnc(Nc3ccc(C(=O)NCCCN)cc3)c2)c(-c2ccccn2)nc1C` [Example 199, N-(3-Aminopropyl)-4-{[4-(5,6-dimethyl-2-pyridin-2-ylpyridin-3-yl)oxypyridin-2-yl]amino}benzamide], the IC50 turned out to be 0.00145 µM.
Take `Cc1ccc(Oc2ccnc(Nc3cccc(CN4CCN(C(=O)NC56CC7CC(CC(C7)C5)C6)CC4)c3)c2)c(C)n1` [Example 177]: the IC50 was 0.0469 µM.
Turning to `Cc1ccc(Oc2ccnc(Nc3cccc(C(=O)NCC(N)=O)c3)c2)c(C)n1` [Example 67, N-(2-Amino-2-oxoethyl)-3-{[4-(2,6-dimethylpyridin-3-yl)-oxypyridin-2-yl]amino}benzamide], the IC50 was found to be 0.054 µM.
Next, `CCCCCNC(=O)N1CCN(Cc2cccc(Nc3cc(Oc4ccc(C)nc4C)ccn3)c2)CC1` [Example 181, 4-[(3-{[4-(2,6-Dimethylpyridin-3-yl)oxypyridin-2-yl]amino}-phenyl)methyl]-N-pentylpiperazine-1-carboxamide]: 0.0159 µM; `Cc1ccc(Oc2ccnc(Nc3ccc(C(=O)NCCn4cccc4)cc3)c2)c(C)n1` [Example 216, 4-{[4-(2,6-Dimethylpyridin-3-yl)oxypyridin-2-yl]amino}-N-(2-pyrrol-1-ylethyl)benzamide]: 0.108 µM.
Next, `Cc1ccc(Oc2ccnc(Nc3ccccn3)c2)c(-c2ccco2)n1` [Example 161, 4-[2-(Furan-2-yl)-6-methylpyridin-3-yl]oxy-N-pyridin-2-yl-pyridin-2-amine]: 0.00855 µM; `Cc1ccc(Oc2ccnc(Nc3ccc(C(=O)NCCn4cccn4)cc3)c2)c(C)n1` [Example 140, 4-{[4-(2,6-Dimethylpyridin-3-yl)oxypyridin-2-yl]amino}-N-(2-pyrazol-1-ylethyl)benzamide]: 0.0208 µM; `Cc1cc(Oc2ccnc(Nc3cccc(CN4CCN(C)CC4)c3)c2)c(-c2ccccn2)nc1C` [Example 78, 4-(5,6-Dimethyl-2-pyridin-2-ylpyridin-3-yl)oxy-N-{3-[(4-methyl-piperazin-1-yl)methyl]phenyl}pyridin-2-amine]: 0.0384 µM.
The result for `CNS(=O)(=O)Cc1ccc(Nc2cc(Oc3cc(C)c(C)nc3-c3ccccn3)ccn2)cc1` [Example 80, 1-(4-{[4-(5,6-Dimethyl-2-pyridin-2-ylpyridin-3-yl)oxypyridin-2-yl]-amino}phenyl)-N-methylmethanesulfonamide] reads 0.0169 µM; that for `Cc1cc(Oc2ccnc(Nc3ccc(OCC(O)CNC(C)C)cc3)c2)c(-c2ccccn2)nc1C` (centres unmarked) [Example 75, 1-(4-{[4-(5,6-Dimethyl-2-pyridin-2-ylpyridin-3-yl)oxypyridin-2-yl]-amino}phenoxy)-3-(propan-2-ylamino)propan-2-ol], 0.0136 µM; that for `COCC(C)NS(=O)(=O)c1ccc(Nc2cc(Oc3ccc(C)nc3C)ccn2)cc1` (centres unmarked) [Example 118, 4-{[4-(2,6-Dimethylpyridin-3-yl)oxypyridin-2-yl]amino}-N-(1-methoxypropan-2-yl)benzenesulfonamide], 0.155 µM.
As to `Cc1ccc(Oc2ccnc(Nc3cccc(C(=O)N4CC[C@H](S(C)(=O)=O)C4)c3)c2)c(C)n1` (single isomer, unassigned) [Example 138], the IC50 was found to be 0.0143 µM.
`Cc1ccc(Oc2ccnc(Nc3ccc(S(=O)(=O)NCCN4CCCCC4)cc3)c2)c(C)n1` [Example 134, 4-{[4-(2,6-Dimethylpyridin-3-yl)oxypyridin-2-yl]amino}-N-(2-piperidin-1-ylethyl)benzenesulfonamide]: the IC50 came out at 0.199 µM.
Next, `Cc1ccc(Oc2ccnc(Nc3ccc(C(N)=O)cc3)c2)c(-c2ccccn2)n1` [Example 146, 4-{[4-(6-Methyl-2-pyridin-2-ylpyridin-3-yl)oxypyridin-2-yl]-amino}benzamide]: 0.0152 µM; `Cc1ccc(Oc2ccnc(Nc3ccc(S(=O)(=O)NCCN4CC[C@H](F)C4)cc3)c2)c(C)n1` [Example 137]: 0.163 µM; `Cc1ccc(Oc2ccnc(Nc3ccccc3)c2)c(C(=O)NCc2ccccc2)n1` [Example 96, 3-(2-Anilinopyridin-4-yl)oxy-N-benzyl-6-methylpyridine-2-carboxamide]: 0.292 µM.
Next, `Cc1ccc(Oc2ccnc(Nc3ccc(S(=O)(=O)N(C)CCO)cc3)c2)c(C)n1` [Example 112, 4-{[4-(2,6-Dimethylpyridin-3-yl)oxypyridin-2-yl]amino}-N-(2-hydroxyethyl)-N-methylbenzenesulfonamide]: 0.505 µM.
